This note sets out measurements from patent US20080125445A1, “5,6-Dialkyl-7-Amino-Azolopyrimidines, Method For Their Production, Their Use For Controlling Pathogenic Fungi and Agents Containing Said Compounds” (BASF Aktiengesellschaft, priority 2005, published 2008).

The structures appear in SMILES notation.

The subject of this experiment is Plasmopara viticola. As to the kind of experiment: Activity against Peronospora of grapevines caused by Plasmopara viticola (comparative test, protective spray). It counts as in vivo. Conditions: leaves of potted grapevines sprayed to runoff, inoculated next day; infection on undersides of leaves determined visually; untreated 100%; active compound concentration not given. On the procedure: The active compounds were prepared as a stock solution comprising 25 mg of active compound which was made up to 10 ml using a mixture of acetone and/or DMSO and the emulsifier Uniperol® EL (wetting agent having emulsifying and dispersing action based on ethoxylated alkylphenols) in a volume ratio of solvent/emulsifier of 99/1. The mixture was then made up to 100 ml with water. This stock solution was diluted with the solvent/emulsifier/water mixture described to the concentration of active compounds stated below. Leaves of potted grapevines were sprayed to runoff point with an aqueous suspension having the concentration of active compound stated below. The next day, the undersides of the leaves were inoculated with an aqueous sporangia suspension of Plasmopara viticola. The grapevines were then initially placed in a water vapor-saturated chamber at 24° C. for 48 hours and then in a greenhouse at temperatures between 20 and 30° C. for 5 days. After this time, the plants were again placed into a moist chamber for 16 hours to accelerate sporangiophore eruption. The extent of the development of the infection on the undersides of the leaves was then determined visually.

For `CCCCCc1nc2cc(C)nn2c(N)c1CCCCC` [Compound I-1, 2-methyl-5,6-dipentylpyrazolo[1,5-a]pyrimidin-7-ylamine], the Infection in % turned out to be 3%. The figure for `CCCCc1nc2cc(C)nn2c(N)c1CCCC` [Compound 17] is 25%.
